Assays:
[1] = for molar entropy: 101.33 kPa, Vacuum adiabatic calorimetry; for vapor or sublimation pressure: Ebulliometric method (Recirculating still)
[2] = Molar enthalpy of transition or fusion; conditions: Crystal; Adiabatic calorimetry

CCCC(=O)OC [methyl butanoate]
[1]
Conditions	Triple point temperature [K]	molar entropy [J/K/mol]	vapor or sublimation pressure [kPa]
5 K, Crystal	–	0.119	–
10 K, Crystal	–	0.949	–
15 K, Crystal	–	2.987	–
20 K, Crystal	–	6.126	–
25 K, Crystal	–	10.07	–
30 K, Crystal	–	14.55	–
35 K, Crystal	–	19.38	–
40 K, Crystal	–	24.39	–
45 K, Crystal	–	29.43	–
50 K, Crystal	–	34.51	–
55 K, Crystal	–	39.59	–
60 K, Crystal	–	44.66	–
65 K, Crystal	–	49.71	–
70 K, Crystal	–	54.67	–
75 K, Crystal	–	59.5	–
80 K, Crystal	–	64.19	–
85 K, Crystal	–	68.76	–
90 K, Crystal	–	73.24	–
95 K, Crystal	–	77.63	–
100 K, Crystal	–	81.94	–
110 K, Crystal	–	90.3	–
120 K, Crystal	–	98.36	–
130 K, Crystal	–	106.18	–
140 K, Crystal	–	113.66	–
150 K, Crystal	–	120.98	–
160 K, Crystal	–	128.13	–
170 K, Crystal	–	135.11	–
180 K, Crystal	–	141.93	–
190 K, Crystal	–	148.58	–
190.09 K, Crystal	–	148.66	–
190.09 K, Liquid	–	208.44	–
200 K, Liquid	–	217.84	–
210 K, Liquid	–	226.9	–
220 K, Liquid	–	235.55	–
230 K, Liquid	–	243.86	–
240 K, Liquid	–	251.84	–
250 K, Liquid	–	259.58	–
260 K, Liquid	–	267.06	–
270 K, Liquid	–	274.38	–
280 K, Liquid	–	281.36	–
290 K, Liquid	–	288.26	–
298.15 K, Liquid	–	293.75	–
300 K, Liquid	–	295	–
310 K, Liquid	–	301.48	–
316.24 K, Liquid	–	–	10.8
320 K, Liquid	–	307.88	–
321.02 K, Liquid	–	–	13.43
326.17 K, Liquid	–	–	16.83
330 K, Liquid	–	314.12	–
331.33 K, Liquid	–	–	20.88
335.84 K, Liquid	–	–	25.07
340 K, Liquid	–	320.27	–
341.17 K, Liquid	–	–	30.91
346.14 K, Liquid	–	–	37.26
350 K, Liquid	–	326.34	–
351.81 K, Liquid	–	–	45.83
357.57 K, Liquid	–	–	56.12
360 K, Liquid	–	332.33	–
363.05 K, Liquid	–	–	67.49
368.86 K, Liquid	–	–	81.57
370 K, Liquid	–	338.15	–
373.81 K, Liquid	–	–	95.31
374.54 K, Liquid	–	–	97.44
375.25 K, Liquid	–	–	99.6
Crystal, fractional melting	190.1	–	–

Conditions	Molar enthalpy of transition or fusion [kJ/mol]
[2]	11.4

Reference: the NIST ThermoML archive (doi:10.1016/j.jct.2011.10.001)
